Assay results from PubChem BioAssay (NCI).
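Following 48 hours of exposure in 96-well plates, responses at five concentrations were used to interpolate endpoints linearly. GI50 marks 50% less growth. TGI: total growth inhibition.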

Experiments:
Experiment in all cases: DTP human tumour cell line panel, 48 h
[1] = tested on: NCI-H460 lung
[2] = tested on: SNB-19 CNS
[3] = tested on: OVCAR-8 ovarian
[4] = tested on: T-47D breast
[5] = tested on: TK-10 renal
[6] = tested on: KM12 colon
[7] = tested on: RXF 393 renal
[8] = tested on: 786-0 renal
[9] = tested on: OVCAR-5 ovarian
[10] = tested on: IGROV1 ovarian
[11] = tested on: SK-MEL-2 melanoma
[12] = tested on: UO-31 renal
[13] = tested on: HT29 colon
[14] = tested on: UACC-62 melanoma
[15] = tested on: K-562 leukemia
[16] = tested on: HL-60(TB) leukemia
[17] = tested on: U251 CNS
[18] = tested on: COLO 205 colon
[19] = tested on: MCF7 breast
[20] = tested on: OVCAR-3 ovarian
[21] = tested on: SF-295 CNS
[22] = tested on: CAKI-1 renal
[23] = tested on: A549 NSCLC
[24] = tested on: NCI-H522 lung
[25] = tested on: SN12C renal
[26] = tested on: PC-3 prostate
[27] = tested on: HS 578T breast
[28] = tested on: DU-145 prostate
[29] = tested on: UACC-257 melanoma
[30] = tested on: EKVX NSCLC
[31] = tested on: SF-539 CNS
[32] = tested on: M14 melanoma
[33] = tested on: SK-MEL-5 melanoma
[34] = tested on: NCI-H226 lung
[35] = tested on: HOP-92 NSCLC
[36] = tested on: MOLT-4 leukemia
[37] = tested on: HCC-2998 colon
[38] = tested on: NCI-H23 lung
[39] = tested on: SF-268 CNS
[40] = tested on: MDA-MB-231 breast
[41] = tested on: SK-MEL-28 melanoma
[42] = tested on: NCI/ADR-RES ovarian
[43] = tested on: HOP-62 NSCLC
[44] = tested on: MDA-MB-435
[45] = tested on: SNB-75 CNS
[46] = tested on: HCT-116 colon
[47] = tested on: RPMI-8226 leukemia
[48] = tested on: HCT-15 colon
[49] = tested on: SK-OV-3 ovarian
[50] = tested on: A498 renal
[51] = tested on: MALME-3M melanoma
[52] = tested on: CCRF-CEM leukemia
[53] = tested on: ACHN renal
[54] = tested on: OVCAR-4 ovarian
[55] = tested on: SW-620 colon
[56] = tested on: SR leukemia
[57] = tested on: LOX IMVI melanoma
[58] = tested on: BT-549 breast

## Cc1ccc(/C=C2/SC(Nc3nc(-c4csc(NC5=NC(=O)/C(=C\c6ccc(C)cc6)S5)n4)cs3)=NC2=O)cc1
[1]
  GI50: 4.36 µM
  TGI: > 50 µM
[2]
  GI50: 12.6 µM
  TGI: > 50 µM
[3]
  GI50: 6.05 µM
  TGI: 26.6 µM
[4]
  GI50: 35.3 µM
  TGI: > 50 µM
[5]
  GI50: 8.49 µM
  TGI: 26.6 µM
[6]
  GI50: 3.47 µM
  TGI: > 50 µM
[7]
  GI50: 23.8 µM
  TGI: > 50 µM
[8]
  GI50: 7.68 µM
  TGI: 25.6 µM
[9]
  GI50: 18.9 µM
  TGI: > 50 µM
[10]
  GI50: 24 µM
  TGI: > 50 µM
[11]
  GI50: > 50 µM
  TGI: > 50 µM
[12]
  GI50: 17.9 µM
  TGI: > 50 µM
[13]
  GI50: 21.1 µM
  TGI: > 50 µM
[14]
  GI50: 1.95 µM
  TGI: 13.6 µM
[15]
  GI50: 1.91 µM
  TGI: > 50 µM
[16]
  GI50: 2.03 µM
  TGI: 29.9 µM
[17]
  GI50: 3.43 µM
  TGI: > 50 µM
[18]
  GI50: 20.2 µM
  TGI: > 50 µM
[19]
  GI50: 2.3 µM
  TGI: > 50 µM
[20]
  GI50: 3.28 µM
  TGI: 33.9 µM
[21]
  GI50: 6.66 µM
  TGI: > 50 µM
[22]
  GI50: 11.1 µM
  TGI: > 50 µM
[23]
  GI50: 7 µM
  TGI: 47.6 µM
[24]
  GI50: 21.6 µM
  TGI: > 50 µM
[25]
  GI50: 5.54 µM
  TGI: > 50 µM
[26]
  GI50: 6.52 µM
  TGI: > 50 µM
[27]
  GI50: 21.9 µM
  TGI: > 50 µM
[28]
  GI50: 9.28 µM
  TGI: > 50 µM
[29]
  GI50: 2.81 µM
  TGI: 14.6 µM
[30]
  GI50: 14.9 µM
  TGI: > 50 µM
[31]
  GI50: 13.5 µM
  TGI: 39.7 µM
[32]
  GI50: 1.31 µM
  TGI: 7.74 µM
[33]
  GI50: 0.0217 µM
  TGI: 1.4 µM
[34]
  GI50: 1.58 µM
  TGI: 28 µM
[35]
  GI50: 7.03 µM
  TGI: 24.5 µM
[36]
  GI50: 18.5 µM
  TGI: > 50 µM
[37]
  GI50: 7.23 µM
  TGI: 27.7 µM
[38]
  GI50: 12 µM
  TGI: > 50 µM
[39]
  GI50: 8.98 µM
  TGI: > 50 µM
[40]
  GI50: 9.76 µM
  TGI: 40.6 µM
[41]
  GI50: 25 µM
  TGI: > 50 µM
[42]
  GI50: 14.3 µM
  TGI: > 50 µM
[43]
  GI50: 1.94 µM
  TGI: 15.5 µM

## N=C(N)N1CCC(N2CCOCC2)CC1
[44]
  TGI: > 100 µM
[1]
  TGI: > 100 µM
[45]
  TGI: > 100 µM
[2]
  TGI: > 100 µM
[3]
  TGI: > 100 µM
[4]
  TGI: > 100 µM
[5]
  TGI: > 100 µM
[6]
  TGI: > 100 µM
[46]
  TGI: > 100 µM
[47]
  TGI: > 100 µM
[48]
  TGI: > 100 µM
[7]
  TGI: > 100 µM
[8]
  TGI: > 100 µM
[9]
  TGI: > 100 µM
[10]
  TGI: > 100 µM
[12]
  TGI: > 100 µM
[13]
  TGI: > 100 µM
[14]
  TGI: > 100 µM
[15]
  TGI: > 100 µM
[16]
  TGI: > 100 µM
[17]
  TGI: > 100 µM
[18]
  TGI: > 100 µM
[19]
  TGI: > 100 µM
[49]
  TGI: > 100 µM
[21]
  TGI: > 100 µM
[23]
  TGI: > 100 µM
[25]
  TGI: > 100 µM
[27]
  TGI: > 100 µM
[28]
  TGI: > 100 µM
[29]
  TGI: > 100 µM
[50]
  TGI: > 100 µM
[51]
  TGI: > 100 µM
[30]
  TGI: > 100 µM
[31]
  TGI: > 100 µM
[32]
  TGI: > 100 µM
[33]
  TGI: > 100 µM
[52]
  TGI: > 100 µM
[34]
  TGI: > 100 µM
[53]
  TGI: > 100 µM
[54]
  TGI: > 100 µM
[35]
  TGI: > 100 µM
[36]
  TGI: > 100 µM
[37]
  TGI: > 100 µM
[38]
  TGI: > 100 µM
[39]
  TGI: > 100 µM
[55]
  TGI: > 100 µM
[40]
  TGI: > 100 µM
[41]
  TGI: > 100 µM
[42]
  TGI: > 100 µM
[56]
  TGI: > 100 µM
[43]
  TGI: > 100 µM

## COc1cc(C2c3cc(O)c(OC)cc3C3OCC2C3CO)ccc1O (centres undefined)
[44]
  TGI: > 100 µM
[1]
  TGI: > 100 µM
[45]
  TGI: > 100 µM
[2]
  TGI: > 100 µM
[4]
  TGI: > 100 µM
[5]
  TGI: > 100 µM
[6]
  TGI: > 100 µM
[46]
  TGI: > 100 µM
[47]
  TGI: > 100 µM
[48]
  TGI: > 100 µM
[7]
  TGI: > 100 µM
[8]
  TGI: > 100 µM
[9]
  TGI: > 100 µM
[11]
  TGI: > 100 µM
[12]
  TGI: > 100 µM
[13]
  TGI: > 100 µM
[57]
  TGI: > 100 µM
[14]
  TGI: > 100 µM
[15]
  TGI: > 100 µM
[16]
  TGI: > 100 µM
[17]
  TGI: > 100 µM
[18]
  TGI: > 100 µM
[19]
  TGI: > 100 µM
[49]
  TGI: > 100 µM
[20]
  TGI: > 100 µM
[21]
  TGI: > 100 µM
[22]
  TGI: > 100 µM
[23]
  TGI: > 100 µM
[24]
  TGI: > 100 µM
[26]
  TGI: > 100 µM
[28]
  TGI: > 100 µM
[58]
  TGI: > 100 µM
[50]
  TGI: > 100 µM
[51]
  TGI: > 100 µM
[30]
  TGI: > 100 µM
[31]
  TGI: > 100 µM
[32]
  TGI: > 100 µM
[33]
  TGI: > 100 µM
[34]
  TGI: > 100 µM
[53]
  TGI: > 100 µM
[54]
  TGI: > 100 µM
[35]
  TGI: > 100 µM
[36]
  TGI: > 100 µM
[37]
  TGI: > 100 µM
[38]
  TGI: > 100 µM
[39]
  TGI: > 100 µM
[55]
  TGI: > 100 µM
[40]
  TGI: > 100 µM
[41]
  TGI: > 100 µM
[42]
  TGI: > 100 µM
[56]
  TGI: > 100 µM
[43]
  TGI: > 100 µM
